# “And” between values parts separate entries of the source, which are not always exact repeats. Identical values can stand only once.
# Tests used:
# Bifidobacteria [1] = assay: 3 stage in vitro gut model, bacterial populations; assay type: cell-based
# [2] = tested on: Clostridia (C. histolyticum and C. perfringens); assay type: cell-based
# Bacteroides = assay: 3 stage in vitro gut model, bacterial populations; assay type: cell-based
# [3] = tested on: Eubacterium rectale and Clostridium coccoides; assay: 3 stage in vitro gut model, bacterial populations; assay type: cell-based
# bifidobacteria [4] = conditions: background statement; cited from earlier work
# [5] = prebiotic effect of black tea flavonoid components (test not described); conditions: statement in the description, no test given
# [6] = SS1 (steady state without test substrate), vessel 1
# [7] = SS1 (steady state without test substrate), vessel 2
# [8] = SS1 (steady state without test substrate), vessel 3
# [9] = SS2 (steady state with substrate added daily), vessel 1
# [10] = SS2 (steady state with substrate added daily), vessel 2
# [11] = SS2 (steady state with substrate added daily), vessel 3
substance,measurement,setting,value
Inulin,Bifidobacteria population,Bifidobacteria [1]; [6],7.62 Log 10 cells/ml of culture fluid
same,Bifidobacteria population,Bifidobacteria [1]; [7],7.52 Log 10 cells/ml of culture fluid
same,Bifidobacteria population,Bifidobacteria [1]; [8],7.49 Log 10 cells/ml of culture fluid
same,prebiotic effect in gut model (in words),"Bifidobacteria [1]; SS1 vs SS2, 1.33 g digested black tea solids per day (2.40 g before digestion), 5 g/day inulin",achieved a similar effect
same,Bifidobacteria population,Bifidobacteria [1]; [9],8.45 Log 10 cells/ml of culture fluid
same,Bifidobacteria population,Bifidobacteria [1]; [10],8.26 Log 10 cells/ml of culture fluid
same,Bifidobacteria population,Bifidobacteria [1]; [11],8.15 Log 10 cells/ml of culture fluid
same,Clostridia (C. histolyticum and C. perfringens) population,[2],5.67 Log 10 cells/ml of culture fluid and 5.84 Log 10 cells/ml of culture fluid and 5.49 Log 10 cells/ml of culture fluid and 5.89 Log 10 cells/ml of culture fluid and 5.59 Log 10 cells/ml of culture fluid
same,Bacteroides population,Bacteroides; [6],7.23 Log 10 cells/ml of culture fluid
same,Bacteroides population,Bacteroides; [7],8.53 Log 10 cells/ml of culture fluid
same,Bacteroides population,Bacteroides; [8],8.35 Log 10 cells/ml of culture fluid
same,Bacteroides population,Bacteroides; [9],6.36 Log 10 cells/ml of culture fluid
same,Bacteroides population,Bacteroides; [10],8.81 Log 10 cells/ml of culture fluid
same,Bacteroides population,Bacteroides; [11],8.55 Log 10 cells/ml of culture fluid
same,Eubacterium rectale and Clostridium coccoides population,[3]; [6],9.14 Log 10 cells/ml of culture fluid
same,Eubacterium rectale and Clostridium coccoides population,[3]; [7],9.19 Log 10 cells/ml of culture fluid
same,Eubacterium rectale and Clostridium coccoides population,[3]; [8],9.17 Log 10 cells/ml of culture fluid
same,Eubacterium rectale and Clostridium coccoides population,[3]; [9],9.37 Log 10 cells/ml of culture fluid
same,Eubacterium rectale and Clostridium coccoides population,[3]; [10],9.28 Log 10 cells/ml of culture fluid
same,Eubacterium rectale and Clostridium coccoides population,[3]; [11],9.20 Log 10 cells/ml of culture fluid
same,bifidobacteria in humans,bifidobacteria [4],significantly increase bifidobacteria
catechins,prebiotic effect (in words),[5],appear to reduce the prebiotic effect of thearubigins
fructo-oligosaccharides,bifidobacteria in humans,bifidobacteria [4],significantly increase bifidobacteria
theaflavins,prebiotic effect (in words),[5],little or no prebiotic effect

# — US8246943B2, “Prebiotic composition” (Conopco, Inc., priority 2009, dated 2012)
